In US8729034B2, “Pharmaceutical composition having virucidal and spermicidal activity” (priority 2007, dated 2014):
Several values for one entry are separate records, joined by “and”; a condition that tells them apart may be missing. Identical values can stand only once. Entries after “also recorded” stand apart in the source; their conditions may differ.

Tests used:
human spermatozoa [1] = assay: Sander & Cramer spermicidal assay (in vitro); assay type: cell-based
Protocol: The exudates/liquefied human semen samples were suspended in BWW medium (pre equilibrated at 37 degree C.). The spermatozoa with forward motility were separated from immotile or sluggishly motile cells by the swim-up technique and were allowed to disperse evenly within a CO2 incubator at 37 degree C. At least five aliquots from each sample was used to prepare the working spermatozoa suspension. The swim up procedure was as follows:
Pre equilibrated BWW medium (1.25 ml) was gently layered over cauda-exudates or liquefied human semen (1 ml) in a sterile 15 ml conical-based centrifuge tube. The tube was inclined at an angle of 45 degree and incubated for 1 hour at 37 degree C. in a CO2-incubator. It was then gently returned to the upright position and the uppermost 1 ml medium with a turbid appearance was removed. This aliquot of motile cells was pooled from each set, then diluted with same volumes of pre equilibrated BWW medium, centrifuged at 500 g for 5 minutes and finally resuspended in 1 ml pre equilibrated BWW medium to obtain a working suspension. The sperm cells were counted in a Makler chamber (Zygotec Systems, Springfield, M A, USA) and finally a working spermatozoa suspension having concentration of 25 to 30×10^6 cells/ml was prepared.
For in vitro assay of spermicidal effect, sperms collected from proven male rats and mice, and motile spermatozoa from liquefied human semen were used.
The assay was done following the Sander & Cramer assay method. Two hundred micro liter (200 microliters) of working spermatozoa suspension was added to 1 ml solution of test material in BWW medium and mixed on a light vortex for 10 seconds. A wet mount was immediately prepared on a clean microscopy glass slide and examined (at ×100) under a phase contrast microscope (Leitz, Biomed). The weakest concentration that immobilized all spermatozoa within 20 seconds of mixing was recorded as MEC. At least five fields were examined for each wet mount preparation. The observation was repeated with five individual spermatozoa suspension for each concentration of test compound solution. For negative control, saponin solutions were replaced by equal volume of BWW medium, while Nonoxynol 9 was used as positive control.

Female cycling rats = assay: Intra uterine application of Ac-B and IUI in rat, fertilization outcome; assay type: in vivo, Sprague-Dawley rats
Protocol: Female cycling rats weighing 180-200 g were obtained from the institutional Animal House. The duplex nature of the rat uterus with separate cervical canal helped us to organize both control and experimental sets in the same animal with exposure to identical physiological milieu.
On the day of pro-estrous, both horns of the uterus were exposed by mid-ventral incision of the abdomen under light anesthesia following intra peritoneal injection of Ketamin at a concentration of 100 mg/kg body weight, supported by inhalation of anesthetic-ether, during 17.00-17.30 hours of the day. IUI was performed by injecting 50 microliters of sperm suspensions with varied concentration (25-30, 40-50, and 50-55 million sperms/ml) through a 24 G needle fitted onto a tuberculin syringe in the cervical end of the uterine lumen of each horn. The muscle in the injection site was held tightly for a while to prevent leakage through the puncture. Prior to IUI, each rat received a injection of 1.75 mg Ac-B in 50 microliters BWW medium in the left horn and simple BWW medium in the right horn. The opened abdominal muscle and skin layers were properly sutured by suturing silk thread. The outer most skin layers were further fixed by metal clips. The wound was properly cleaned with antiseptic lotions. Each operated animal was housed individually in fresh cage for collection and counting of unfertilized oocytes, two celled embryos, and fragmented bodies. […] The abdomen was opened and each of the fallopian tubes was collected carefully. The content of each tube was flushed out by introducing BWW medium into each tube with the help of a 30 G hypodermic needle in a watch glass. The flushed out lavage was examined under an inverted phase contrast microscope (Leitz, Labovert, ×100) to score the number of recovered fertilized/unfertilized eggs from individual fallopian tube.

human spermatozoa [2] = assay: Membrane lipid peroxidation, MDA by thiobarbituric acid (TBA) test; assay type: cell-based; details: Ac-B 10-120 microgram per ml, 20 seconds
Protocol: Membrane lipid peroxidation was estimated by the end point generation of malondialdehyde (MDA) determined by the thiobarbituric acid (TBA) test.
Suspension of human spermatozoa was prepared using the swim up technique, as described above. A series of dilutions (10, 20, 40, 60, 80, 100 and 120 microgram per ml) of Ac-B was prepared in BWW medium. From each test (Ac-B) solution, 800 microliters was taken out and mixed with 200 microliters of sperm suspension with a gentle vortex for 10 seconds. After 20 seconds of mixing, the treated spermatozoa were separated from the suspending medium by centrifugation. The pellet of washed spermatozoa was resuspended in physiological saline. A control set of untreated sperm was treated similarly. Membrane lipid peroxidation was estimated by the end point generation of malondialdehyde (MDA), determined by the thiobarbituric acid (TBA) test.
Briefly, diluted spermatozoa with or without treatment (250×10^6 cells in 1 ml) were mixed with 1 ml of cold 20% (wt/vol) trichloroacetic acid (TCA) to precipitate protein. The precipitate was pelleted by centrifugation (2000 rpm for 10 minutes), and 1 ml of the supernatant was incubated with 1 ml of 0.67% (wt/vol) TBA in a boiling water bath at 100 degree C. for 30 minutes. After cooling, the absorbance was determined by a spectrophotometer (UNICAM PU 8610 Kinetics spectrophotometer; Philips, Holland) at 535 nm.

human sperm = assay: Electron microscopy of treated sperm (TEM/SEM); assay type: cell-based; details: Ac-B-treated human sperm
Protocol: For electron microscopy, the suspending medium was replaced with 0.1M phosphate buffer (pH 7.0). A concentrated untreated (control) and Ac-B-treated (experimental) human sperm suspension were mixed with 2% glutaraldehyde in phosphate buffer for fixation at 4 degree C. for 4 hours. After three successive washings in buffer at room temperature, post-fixation was done by 1% osmium tetroxide. Thirty minutes after post-fixation, the spermatozoa were quickly washed with phosphate buffer and end block staining was done by saturated urenyl acetate solution. Dehydration of the fixed spermatozoa was done in graded (50%, 70%, 90% and 100%) ethyl alcohol. A portion of each set of dehydrated sperms were embedded in spur and blocks were prepared for ultra-thin sectioning. Ultra-thin sections were prepared in LKB Ultramicrotome using a diamond knife. Finally the thin sections were stained with urenyl acetate and freshly prepared lead citrate. The stained sections were thoroughly examined under TECHNI G2 BIOTWEEN transmission electron microscope (at ×25000). The rest of the dehydrated sperm sets were prepared for examination under tescan scanning electron microscope.

[3] = 1.75 mg Ac-B intrauterine, sperm count 25-30 million/ml (N = 3)
[4] = 1.75 mg Ac-B intrauterine, sperm count 40-50 million/ml (N = 4)
[5] = 1.75 mg Ac-B intrauterine, sperm count 50-55 million/ml (N = 4)

Acaciaside-B [Ac-B]
MEC as per Sander and Cramer Test (human spermatozoa [1]; Human spermatozoa (N = 5), weakest concentration immobilizing all spermatozoa within 20 seconds): 125 microgram per ml and 125 (±7) microgram per ml | EC50 for spermicidal activity in vitro (human spermatozoa [1]; human sperm): 22 microgram per ml | MEC for spermicidal action (human spermatozoa [1]; human sperm): 125 microgram | MEC for spermicidal activity (human spermatozoa [1]; human sperm): 125 micro g/ml | MEC, spermicidal (human spermatozoa [1]; human sperm): 125 µg/mL | Fertilized (number of eggs), treated horn (Female cycling rats; 1.75 mg Ac-B in 50 microliters BWW intrauterine before IUI, sperm count 25-30 million/ml (N = 3), flushing 38-40 hours after IUI): 0 (0%) | Fertilized (%), treated horn (Female cycling rats; [3]): 0 (0%) | Unfertilized (%), treated horn (Female cycling rats; [3]): 100% | Unfertilized (number of eggs), treated horn (Female cycling rats; [3]): 17 | Fertilized (number of eggs), treated horn (Female cycling rats; [4]): 0 (%) | Unfertilized (%), treated horn (Female cycling rats; [4]): 100% | Unfertilized (number of eggs), treated horn (Female cycling rats; [4]): 19 | Fertilized (%), treated horn (Female cycling rats; [5]): 18% | Fertilized (number of eggs), treated horn (Female cycling rats; [5]): 3 | Unfertilized (%), treated horn (Female cycling rats; [5]): 82% | Unfertilized (number of eggs), treated horn (Female cycling rats; [5]): 13 | Production of malondialdehyde (MDA) (human spermatozoa [2]): increase in the production of MDA; also recorded: dose-dependent increased generation of malondialdehyde (MDA) | Electron microscopic finding on plasma membrane (TEM) (human sperm): vesiculization/vacuolization of the plasma membrane leading to its disintegration
